Data published in US20230095836A1, “SUBSTITUTED 5,6-DIPHENYL-3(2H)-PYRIDAZINONES FOR USE AS FUNGICIDES” (FMC Corporation, priority 2020, published 2023).

Legend:
Format in all cases: in vivo
Details in all cases: 50 ppm
Zymoseptoria tritici = experiment: Test A: test solution sprayed on wheat seedlings, inoculated next day with Zymoseptoria tritici (wheat leaf blotch); disease rating (100 = 100% disease control, 0 = no control; dash = not tested)
Summary of the method: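 Preventive spray test: compound applied to run-off one day before spore inoculation of wheat seedlings. Incubation was 48 h saturated humidity at 24° C followed by 17 days at 20° C. Disease then scored 0–100 as % control versus untreated plants.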

[1] = test system: Puccinia recondita f. sp. tritici; experiment: Test B: test solution sprayed on wheat seedlings, inoculated next day with Puccinia recondita f. sp. tritici (wheat leaf rust); disease rating (100 = 100% disease control, 0 = no control; dash = not tested)
Source text: The resulting test suspensions were then used in Tests A-F. The test solution was sprayed to the point of run-off on wheat seedlings. […] A rating of 100 indicates 100% disease control and a rating of 0 indicates no disease control (relative to the controls). A dash (—) indicates the compound was not tested.

[2] = test system: Blumeria graminis f. sp. tritici; experiment: Test C: test suspension sprayed on wheat seedlings, inoculated next day with Blumeria graminis f. sp. tritici (wheat powdery mildew); visual disease rating (100 = 100% disease control, 0 = no control; dash = not tested)
Summary of the method: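 Visual ratings of disease control (0–100, relative to controls) were made 8 days after inoculation with B. graminis f. sp. tritici spore dust. Plants were held at 20 °C. Compound was applied as a spray to run-off one day before inoculation.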

Phakopsora pachyrhizi = experiment: Test D: test solution sprayed on soybean seedlings, inoculated next day with Phakopsora pachyrhizi (Asian soybean rust); visual disease rating (100 = 100% disease control, 0 = no control; dash = not tested)
Summary of the method: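 Preventive spray test: soybean seedlings treated to run-off with ppm-level suspensions (acetone/water 50/50, 250 ppm PEG400), spore-inoculated one day later. Held 24 h at 22 °C in saturated air, then 8 days at 22 °C; disease control scored visually versus untreated plants, 0 = none, 100 = complete.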

Botrytis cinerea = experiment: Test E: test suspension sprayed on tomato seedlings, inoculated next day with Botrytis cinerea (tomato Botrytis); visual disease rating (100 = 100% disease control, 0 = no control; dash = not tested)
Summary of the method: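 Spores were applied one day after spraying the seedlings to run-off. Incubation was 48 h saturated at 20° C, then 3 days in a 24° C growth chamber. Visual ratings, relative to untreated controls, run from 0 (no control) to 100 (complete control).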

Alternaria solani = experiment: Test F: test suspension sprayed on tomato seedlings, inoculated next day with Alternaria solani (tomato early blight); visual disease rating (100 = 100% disease control, 0 = no control; dash = not tested)
Summary of the method: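 Visual ratings of % disease control versus controls were made after inoculated plants spent 48 h at 27° C. in saturated air plus 3 days at 20° C. The compound suspension had been sprayed to run-off one day before spore inoculation.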

Compound | pest or weed control at 50 ppm (Zymoseptoria tritici) | pest or weed control at 50 ppm [1] | pest or weed control at 50 ppm [2] | pest or weed control at 50 ppm (Phakopsora pachyrhizi) | pest or weed control at 50 ppm (Botrytis cinerea) | pest or weed control at 50 ppm (Alternaria solani) | Test A disease control rating (Zymoseptoria tritici) | Test B disease control rating [1] | Test C disease control rating [2] | Test D disease control rating (Phakopsora pachyrhizi) | Test E disease control rating (Botrytis cinerea) | Test F disease control rating (Alternaria solani)
COc1cc(OC)c(Br)c(-c2nn(C)c(=O)c(Cl)c2-c2ccc(F)cc2Cl)c1 [Compound 77, 6-(2-bromo-3,5-dimethoxyphenyl)-4-chloro-5-(2-chloro-4-fluorophenyl)-2-methyl-3(2H)-pyridazinone] | 100% | 100% | 99% | 100% | 97% | 100% | – | – | – | – | – | –
COc1cc(OC)cc(-c2nn(C)c(=O)c(OC)c2-c2ccc(F)cc2Cl)c1 [Compound 78] | – | – | – | – | – | – | 100% | 99% | 98% | 59% | 95% | 99%
COc1cc(OC)c(Br)c(-c2nn(C)c(=O)c(OC)c2-c2ccc(F)cc2Cl)c1 [Compound 79] | – | – | – | – | – | – | 100% | 100% | 100% | 100% | 97% | 100%
Cn1nc(-c2cc(F)ccc2Cl)c(-c2ccc(F)cc2Cl)c(Cl)c1=O [Compound 82] | – | – | – | – | – | – | 100% | 100% | 100% | 100% | 64% | 100%
COc1ccc(Cl)c(-c2nn(C)c(=O)c(Cl)c2-c2ccccc2)c1 [Compound 95] | – | – | – | – | – | – | 100% | 99% | 97% | 0% | 96% | 24%
COc1cc(F)c(-c2c(-c3cc(OC)ccc3Cl)nn(C)c(=O)c2Cl)c(F)c1 [Compound 96] | – | – | – | – | – | – | 100% | 100% | 97% | 100% | 96% | 100%
COc1ccc(Cl)c(-c2nn(C)c(=O)c(Cl)c2-c2ccc(F)cc2Br)c1 [Compound 97] | – | – | – | – | – | – | 100% | 100% | 100% | 100% | 96% | 99%
CCn1nc(-c2cc(OC)cc(OC)c2Br)c(-c2c(F)cccc2F)c(C#N)c1=O [Compound 100] | – | – | – | – | – | – | 100% | 100% | 99% | 100% | 99% | 93%
COc1ccc(Cl)c(-c2nn(C)c(=O)c(OC)c2-c2ccc(F)cc2Cl)c1 [Compound 101] | – | – | – | – | – | – | 100% | 100% | 99% | 100% | 99% | 99%
COc1ccc(Cl)c(-c2nn(C)c(=O)c(OC)c2-c2ccc(F)cc2Br)c1 [Compound 103] | – | – | – | – | – | – | 100% | 100% | 100% | 97% | 91% | 99%
Cn1nc(-c2cccc(Cl)c2Cl)c(-c2ccc(F)cc2Cl)c(Cl)c1=O [Compound 104] | – | – | – | – | – | – | 100% | 100% | 100% | 100% | 97% | 99%
Cn1nc(-c2cccc(Cl)c2F)c(-c2ccc(F)cc2Cl)c(Cl)c1=O [Compound 105] | – | – | – | – | – | – | 100% | 99% | 99% | 79% | 96% | 99%
Cn1nc(-c2cccc(F)c2F)c(-c2ccc(F)cc2Cl)c(Cl)c1=O [Compound 107] | – | – | – | – | – | – | 100% | 100% | 100% | 100% | 97% | 100%
COc1c(-c2ccc(F)cc2Cl)c(-c2cccc(Cl)c2Cl)nn(C)c1=O [Compound 108] | – | – | – | – | – | – | 100% | 100% | 100% | 70% | 98% | 99%
COc1c(-c2ccc(F)cc2Cl)c(-c2cccc(Cl)c2F)nn(C)c1=O [Compound 109] | – | – | – | – | – | – | 100% | 74% | 99% | 0% | 96% | 85%
COc1c(-c2ccc(F)cc2Cl)c(-c2cccc(F)c2Br)nn(C)c1=O [Compound 110] | – | – | – | – | – | – | 100% | 100% | 100% | 79% | 96% | 99%
COc1c(-c2ccc(F)cc2Cl)c(-c2cccc(F)c2F)nn(C)c1=O [Compound 116] | – | – | – | – | – | – | 100% | 100% | 99% | 52% | 98% | 100%
COc1ccc(Cl)c(-c2nn(C)c(=O)cc2-c2ccc(F)cc2Cl)c1 [Compound 117] | – | – | – | – | – | – | 99% | 98% | 93% | 47% | 99% | 0%
COc1ccc(Br)c(-c2nn(C)c(=O)c(Cl)c2-c2ccc(F)cc2Cl)c1 [Compound 118] | – | – | – | – | – | – | 99% | 100% | 99% | 100% | 98% | 100%
Cn1nc(-c2cc(F)ccc2Br)c(-c2ccc(F)cc2Cl)c(Cl)c1=O [Compound 119] | – | – | – | – | – | – | 100% | 100% | 100% | 99% | 96% | 100%
COc1c(-c2ccc(F)cc2Cl)c(-c2cc(F)ccc2Cl)nn(C)c1=O [Compound 120] | – | – | – | – | – | – | 100% | 100% | 99% | 77% | 33% | 0%
COc1c(-c2ccc(F)cc2Cl)c(-c2cc(F)ccc2Br)nn(C)c1=O [Compound 121] | – | – | – | – | – | – | 100% | 100% | 99% | 72% | 99% | 99%
